Strand notation (5' to 3'): a small letter for the sugar, then the base; units joined by * are phosphorothioate-linked, units joined directly phosphodiester-linked; [ ] holds rarer units or linkages, { } end groups; capitals alone tell only the bases. e = 2'-O-(2-methoxyethyl) (MOE); k = constrained ethyl (cEt); [5mC] = 5-methylcytosine; d = 2'-deoxy (DNA); m = 2'-O-methyl
Tested on: Yap1 mRNA
Test: Antisense inhibition of human Yap1 in SNU-449 cells by modified oligonucleotides, single dose (Example 5, RTS36584)
Format: cell-based
Summary of the method: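 Each modified oligonucleotide is applied by free uptake to SNU-449 cultures at 2,000 nM, and total RNA is harvested around 48 h later. Yap1 transcript, quantified with the RTS36584 set and corrected for RIBOGREEN RNA content, is given as % UTC. Asterisks mark sequences overlapping the amplicon.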

[1] = Table 48, Yap1 mRNA level relative to untreated control, modified oligonucleotides targeting SEQ ID NO.: 1 and 2
[2] = Table 52, Yap1 mRNA, modified oligonucleotides targeting SEQ ID NO: 1 and 2
[3] = Table 46, Yap1 mRNA as percent of untreated control, SNU-449 cells, single dose
[4] = Table 45, Yap1 mRNA as percent of untreated control, SNU-449 cells, single dose
[5] = Table 42 (separate experiment), SNU-449 cells, 10,000 cells per well, free uptake, 2,000 nM modified oligonucleotide, approximately 48 hours, RTS36584, normalized to RIBOGREEN, Yap1 mRNA relative to untreated control cells
[6] = Yap1 mRNA, percent of untreated control, modified oligonucleotides targeting SEQ ID NO: 1 and 2, Table 47
[7] = Table 40 (separate experiment), SNU-449 cells, 10,000 cells per well, free uptake, 2,000 nM oligonucleotide, approx. 48 hours, RTS36584, normalized to RIBOGREEN, Yap1 mRNA relative to untreated control
[8] = Table 44 experiment, SNU-449 cells, 10,000 cells per well, free uptake, 2,000 nM, approximately 48 hours, RTS36584, Yap1 mRNA normalized to RIBOGREEN, relative to untreated control cells

## 1198287 (kA*kA*kA*dT*dT*dG*dT*d[5mC]*dT*d[5mC]*dA*dT*kG*e[5mC]*k[5mC]*eT; antisense) [Compound 1198287]
[1]
  YAP1 (% UT): 13 % UT

## 1198241 (kT*kT*dT*dA*dG*dG*dA*dT*dG*d[5mC]*dA*eT*eG*eG*kT*kT; antisense) [Compound 1198241]
Table 43 experiment, SNU-449 cells, 10,000 cells per well, free uptake, 2,000 nM, approximately 48 hours, RTS36584, Yap1 mRNA normalized to RIBOGREEN, relative to untreated control cells
  YAP1 (% UTC): 32 % UTC

## 1200830 (kT*kT*kA*dG*dG*mA*dT*dG*d[5mC]*dA*dT*dG*dG*kT*kT*kT; antisense) [Compound 1200830]
[2]
  YAP1 (% UT): 50 % UT

## 1198814 (antisense kA*kG*dA*dG*dT*dA*dT*dG*dT*dG*dG*k[5mC]*eA*kA*eT*kA) [Compound 1198814]
[3]
  YAP1 (% UT): 13 % UT

## 1198811 (antisense kA*kT*dG*dG*dA*dA*dA*dT*dT*dG*dT*k[5mC]*eT*k[5mC]*eA*kT) [Compound 1198811]
[3]
  YAP1 (% UT): 38 % UT

## 1095491 (antisense kA*k[5mC]*dT*dG*dA*dG*dG*dT*dA*dT*dA*kA*d[5mC]*kT*dG*kG) [Compound 1095491]
[4]
  YAP1 (% UTC): 65 % UTC

## 1198857 (kT*k[5mC]*dT*dT*dA*dT*dA*dT*dG*dG*dT*kT*eT*kT*eG*kT; antisense) [Compound 1198857]
[3]
  YAP1 (% UT): 19 % UT

## 1198704 (kA*kA*d[5mC]*dT*dT*dT*dA*dA*dA*dG*dT*dG*kT*eA*kT*eG; antisense) [Compound 1198704]
[5]
  YAP1 (% UTC): 72 % UTC

## 1197224 (antisense kA*k[5mC]*kT*dA*dA*dG*dT*dA*dA*dG*dG*dT*dT*kT*k[5mC]*k[5mC]) [Compound 1197224]
[6]
  YAP1 (% UT): 24 % UT

## 1200853 (kA*kT*kG*dT*dA*mA*dT*dA*dT*dT*dG*d[5mC]*dA*kA*kT*k[5mC]; antisense) [Compound 1200853]
[2]
  YAP1 (% UT): 69 % UT

## 1198394 (kT*dT*dT*dT*dA*d[5mC]*dA*dT*dT*dA*dG*kG*eA*kA*e[5mC]*kA; antisense) [Compound 1198394]
Table 39, SNU-449 cells, 10,000 cells per well, free uptake, 2,000 nM oligonucleotide, approx. 48 hours, RTS36584, normalized to RIBOGREEN, Yap1 mRNA relative to untreated control
  YAP1 (% UTC): 63 % UTC

## 1198428 (kG*dA*d[5mC]*dA*dA*d[5mC]*dT*d[5mC]*dT*dT*dA*kT*eA*kT*eG*kG; antisense) [Compound 1198428]
[7]
  YAP1 (% UTC): 62 % UTC

## 1198488 (antisense kG*kG*dA*dA*dG*dA*dT*d[5mC]*dT*dG*dA*eA*kA*e[5mC]*kT*e[5mC]) [Compound 1198488]
[8]
  YAP1 (% UTC): 66 % UTC

## 1197220 (antisense kT*kA*kA*dG*dG*dT*dT*dT*d[5mC]*d[5mC]*d[5mC]*dA*dG*kA*kT*kT) [Compound 1197220]
[6]
  YAP1 (% UT): 32 % UT

## 1198476 (antisense kA*kG*dG*dT*dA*dT*dA*dA*d[5mC]*dT*dG*eG*kG*e[5mC]*kA*eA) [Compound 1198476]
[8]
  YAP1 (% UTC): 31 % UTC

## 1198783 (antisense kA*eT*kG*dT*dA*dA*dT*dA*dT*dT*dG*d[5mC]*eA*eA*kT*k[5mC]) [Compound 1198783]
[7]
  YAP1 (% UTC): 78 % UTC

## 1198929 (kA*kG*dT*dG*d[5mC]*dT*dT*dT*dG*dG*dA*kA*dG*kA*dT*k[5mC]) [Compound 1198929]
[4]
  YAP1 (% UTC): 43 % UTC

## 1198317 (kT*kT*kG*dG*dA*dA*dG*dA*dT*d[5mC]*dT*dG*kA*eA*kA*e[5mC]; antisense) [Compound 1198317]
[1]
  YAP1 (% UT): 74 % UT

## 1197206 (antisense kA*kT*kA*dT*dT*dG*d[5mC]*dA*dA*dT*d[5mC]*dT*dG*kT*k[5mC]*kT) [Compound 1197206]
[6]
  YAP1 (% UT): 63 % UT

## 1198321 (kT*kG*k[5mC]*dT*dT*dT*dG*dG*dA*dA*dG*dA*kT*e[5mC]*kT*eG; antisense) [Compound 1198321]
[1]
  YAP1 (% UT): 45 % UT

## 1198366 (kA*k[5mC]*kT*dA*dA*dG*dT*dA*dA*dG*dG*dT*kT*eT*k[5mC]*e[5mC]; antisense) [Compound 1198366]
Table 49, Yap1 mRNA level relative to untreated control, modified oligonucleotides targeting SEQ ID NO.: 1 and 2
  YAP1 (% UT): 45 % UT

## 1198210 (kT*kT*dA*dG*dA*dG*dT*dA*dT*dG*dT*eG*eG*e[5mC]*kA*kA; antisense) [Compound 1198210]
[5]
  YAP1 (% UTC): 28 % UTC

## 1198818 (antisense kT*kA*dT*dT*dA*dG*dA*dG*dT*dA*dT*kG*eT*kG*eG*k[5mC]) [Compound 1198818]
[3]
  YAP1 (% UT): 15 % UT

— patent US11214803B2, “Modulators of YAP1 expression” (Ionis Pharmaceuticals, Inc., priority 2019, dated 2022)
